Measured values reported in the supplement of paper PMC10307832.

Columns and labels:
Test in all cases: relative viability (nuclei count vs DMSO), 5 days (fraction); higher = more cells survive
[1] = compound: CN(C)CC1=CC(=CC=C1)N=C(C2=CC=CC=C2)C3=C(NC4=C3C=CC(=C4)C(=O)N(C)C)O
Summary of the method: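 A plate was accepted only when its control CV was below 25% and the cells had doubled at least once. Viability is defined from nuclear counts as treated wells divided by vehicle wells, with the median taken across plates. That median covers lung cancer cell lines grown in 1536-well plates, dosed by pinning at five √10-spaced library-drug concentrations, and counted in MetaXpress from 4× Hoechst images after 5 days.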

[2] = compound: CN(C)CC1=CC(=CC=C1)N=C(C2=CC=CC=C2)C3=C(NC4=C3C=CC(=C4)C(=O)N(C)C)O + N=C(N)NC(=N)NCCc1ccccc1 [Phenformin] (partner 250 µM)
Summary of the method: (§1)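 One day after seeding in 1536-well plates, lung cancer cell lines were dosed by pin tool. Dosing was either single-drug or a fixed anchor-drug dose plus five library-drug doses (not always all listed) in √10 steps. After 5 days, nuclei were stained in one fix-and-stain step and counted on 4× images, and relative viability is the nuclei count of treated wells over that of vehicle wells, given as the median of duplicate plates.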

[3] = compound: CN(C)CC1=CC(=CC=C1)N=C(C2=CC=CC=C2)C3=C(NC4=C3C=CC(=C4)C(=O)N(C)C)O + CC(=O)Nc1cccc(-n2c(=O)n(C3CC3)c(=O)c3c(Nc4ccc(I)cc4F)n(C)c(=O)c(C)c32)c1 [Trametinib] (partner 0.02 µM)
Summary of the method: as §1

[4] = compound: CN(C)CC1=CC(=CC=C1)N=C(C2=CC=CC=C2)C3=C(NC4=C3C=CC(=C4)C(=O)N(C)C)O + O=C(c1cc(Cc2n[nH]c(=O)c3ccccc23)ccc1F)N1CCN(C(=O)C2CC2)CC1 [Olaparib] (partner 8 µM)
Summary of the method: as §1

Cell Line	relative viability ([1]; 0.08 µM)	relative viability ([1]; 0.253 µM)	relative viability ([1]; 0.8 µM)	relative viability ([1]; 2.53 µM)	relative viability ([1]; 8 µM)	relative viability ([2]; first compound 0.08 µM)	relative viability ([2]; first compound 0.253 µM)	relative viability ([2]; first compound 0.8 µM)	relative viability ([2]; first compound 2.53 µM)	relative viability ([2]; first compound 8 µM)	relative viability ([3]; first compound 0.08 µM)	relative viability ([3]; first compound 0.253 µM)	relative viability ([3]; first compound 0.8 µM)	relative viability ([3]; first compound 2.53 µM)	relative viability ([3]; first compound 8 µM)	relative viability ([4]; first compound 0.08 µM)	relative viability ([4]; first compound 0.253 µM)	relative viability ([4]; first compound 0.8 µM)	relative viability ([4]; first compound 2.53 µM)	relative viability ([4]; first compound 8 µM)
NCI-H661	0.975	1.05	1.01	0.958	0.941	0.274	0.284	0.244	0.293	0.262	0.565	0.551	0.54	0.591	0.592	0.739	0.697	0.74	0.649	0.706
A-427	1.02	1.07	0.974	0.963	0.98	0.378	0.385	0.308	0.257	0.266	0.752	0.787	0.776	0.686	0.663	0.716	0.711	0.754	0.707	0.711
COR-L23	1.04	1.02	1.09	0.95	0.967	0.495	0.413	0.402	0.423	0.421	0.688	0.551	0.589	0.517	0.567	0.36	0.308	0.397	0.314	0.327
NCI-H520	0.879	0.958	1.01	0.932	0.881	0.477	0.564	0.508	0.429	0.347	0.493	0.703	0.664	0.594	0.497	0.378	0.352	0.284	0.298	0.286
NCI-H23	1.09	1.03	1.06	1.02	0.815	0.796	0.781	0.787	0.764	0.691	–	0.503	0.357	0.404	0.339	–	0.284	0.365	0.316	0.345
EKVX	0.981	0.919	0.819	1.05	0.996	0.239	0.251	0.221	0.247	0.241	0.32	0.389	–	0.432	0.438	0.83	0.781	–	0.837	0.862
HCC-78	0.993	0.95	0.967	1.02	0.958	0.642	0.812	0.675	0.698	0.738	0.79	0.708	0.868	0.785	0.65	0.599	0.816	0.776	0.742	0.862
NCI-H596	1.05	0.973	0.975	1.01	0.882	0.693	0.625	0.769	0.806	0.742	0.809	0.873	0.921	0.821	0.723	0.692	0.718	0.695	0.69	0.861
